Patent US7767649B2, “Amino acid conjugates providing for sustained systemic concentrations of GABA analogues” (XenoPort, Inc., priority 2002, dated 2010)

Tested on: PEPT2
Test: Electrogenic transport in Xenopus oocytes expressing PEPT2 (two-electrode electrophysiology)
Type: cell-based
Settings: compound at 1 mM, normalized to saturating glycyl-sarcosine (1 mM)
Description: Rat and human PEPT1 and PEPT2 expressing CHO cell lines were prepared as described in PCT Application WO01/20331. Gabapentin-containing dipeptides were evaluated for interaction with the peptide transporters using a radiolabeled substrate uptake assay in a competitive inhibition format, as described in PCT Application WO01/20331. Transport-induced currents were also measured in Xenopus oocytes transfected with rat and human PEPT1 and PEPT2.
Rat and human PEPT1 and PEPT2 transporter cDNAs were subcloned into a modified pGEM plasmid that contains 5′ and 3′ untranslated sequences from the Xenopus β-actin gene. These sequences increase RNA stability and protein expression. Plasmid cDNA was linearized and used as template for in vitro transcription (Epicentre Technologies transcription kit, 4:1 methylated:non-methylated GTP).
Xenopus laevis frogs were anesthetized by immersion in Tricaine ([…] in deionized water) for 15 min. Oocytes were removed and digested in frog ringer solution (90 mM NaCl, 2 mM KCl, 1 mM MgCl2, 10 mM NaHEPES, pH 7.45, no CaCl2) with 1 mg/mL collagenase (Worthington Type 3) for 80-100 min with shaking. […]
Transport currents were measured 2-14 days after injection, using a standard two-electrode electrophysiology set-up (Geneclamp 500 amplifier, Digidata 1320/PCLAMP software and ADInstruments hardware and software were used for signal acquisition). […]

C[C@H](NC(=O)[C@@H](N)CNC(=O)CC1(CN)CCCCC1)C(=O)O [N-β-(Gabapentinyl)-L-Diaminopropionyl-L-Alanine]
induced current as % of Imax: 45%
